37 molecules from patent US12552772B2, “2-pyrazole anilines and related analogs for inhibiting YAP/TAZ-TEAD” (KATHOLIEKE UNIVERSITEIT LEUVEN, priority 2021, dated 2026) can be followed below.

The term EC50 denotes the concentration that produces a half-maximal response. A high value points to a need for much substance.

Each structure is given as a SMILES string.

This assay concerns YAP/TAZ-TEAD transcription. In words: Reporter gene assay for measuring the inhibition of YAP/TAZ-TEAD transcription (TEAD-responsive element luciferase reporter in Hek293T cells). The conditions noted are these: Homo sapiens, HEK-293T, 24 hours incubation. In kind it is cell-based. The procedure, abridged: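 Hek293T cells transiently transfected with a TEAD-responsive element luciferase reporter were plated onto compounds and incubated 24 h at 37 °C/5% CO2. SteadyLite luminescence gave percent inhibition, normalised to vehicle (0%) and positive control inhibitor (100%); EC50 derived.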
(A reporter such as luciferase makes a cellular process visible.)
Consider `CN(C)S(=O)(=O)CCNc1ccc(-c2ccc(F)cc2)nc1-c1ccn(C(F)F)n1` [compound 133, 2-((2-(1-(difluoromethyl)-1H-pyrazol-3-yl)-6-(4-fluorophenyl)pyridin-3-yl)amino)-N,N-dimethylethane-1-sulfonamide], for which the EC50 is less than 1000 nM. The result for `CNS(=O)(=O)CCNc1ccc(-c2ccc(C(F)(F)F)cc2)nc1-c1ccn(C(F)F)n1` [compound 134, 2-((2-(1-(difluoromethyl)-1H-pyrazol-3-yl)-6-(4-(trifluoromethyl)phenyl)pyridin-3-yl)amino)-N-methylethane-1-sulfonamide] reads less than 1000 nM; that for `C=CC(=O)NCc1ccc(-c2ccccc2)cc1-c1ccn(Cc2cccnc2)n1` [compound 136, N-((3-(1-(pyridin-3-ylmethyl)-1H-pyrazol-3-yl)-[1,1′-biphenyl]-4-yl)methyl)acrylamide], less than 1000 nM. The molecule `CCC(=O)NCc1cc(-c2ccccc2)cc(-c2ccn(C)n2)c1` [compound 138, N-((5-(1-methyl-1H-pyrazol-3-yl)-[1,1′-biphenyl]-3-yl)methyl)propionamide] registered an EC50 of 1000 to 20000 nM.

As to `C=CC(=O)NCc1cc(-c2ccccc2)cc(-c2ccn(Cc3cccnc3)n2)c1` [compound 139, N-((5-(1-(pyridin-3-ylmethyl)-1H-pyrazol-3-yl)-[1,1′-biphenyl]-3-yl)methyl)acrylamide], the EC50 is less than 1000 nM. The result for `C=CC(=O)NCc1ccc(-c2ccc(C(F)(F)F)cc2F)cc1-c1ccn(C)n1` [compound 146, N-((2′-fluoro-3-(1-methyl-1H-pyrazol-3-yl)-4′-(trifluoromethyl)-[1,1′-biphenyl]-4-yl)methyl)acrylamide] reads less than 1000 nM.

Consider `C=CC(=O)NCc1ccc(-c2ccc(C(F)(F)F)cn2)cc1-c1ccn(C)n1` [compound 147, N-(2-(1-methyl-1H-pyrazol-3-yl)-4-(5-(trifluoromethyl)pyridin-2-yl)benzyl)acrylamide], for which the EC50 was less than 1000 nM. `C=CC(=O)NCc1ccc(-c2ccc(C(F)(F)F)nc2)cc1-c1ccn(C)n1` [compound 148, N-(2-(1-methyl-1H-pyrazol-3-yl)-4-(6-(trifluoromethyl)pyridin-3-yl)benzyl)acrylamide] yielded a half-maximal effective concentration (EC50) of less than 1000 nM. The result for `C=CC(=O)NCc1ccc(-c2ccc(F)cc2)cc1-c1ccn(C(C)C)n1` [compound 150, N-((4′-fluoro-3-(1-isopropyl-1H-pyrazol-3-yl)-[1,1′-biphenyl]-4-yl)methyl)acrylamide] reads less than 1000 nM; that for `C=CC(=O)NCc1ccc(-c2ccc(F)cc2)cc1-c1ccn(CCO)n1` [compound 151, N-((4′-fluoro-3-(1-(2-hydroxyethyl)-1H-pyrazol-3-yl)-[1,1′-biphenyl]-4-yl)methyl)acrylamide], less than 1000 nM; that for `C=CC(=O)NCc1ccc(-c2ccc(F)cc2)cc1-c1ccn(CC(C)C)n1` [compound 152, N-((4′-fluoro-3-(1-isobutyl-1H-pyrazol-3-yl)-[1,1′-biphenyl]-4-yl)methyl)acrylamide], less than 1000 nM.

With `C=CC(=O)NCc1ccc(-c2ccc(F)cc2)cc1-c1ccn(C2COC2)n1` [compound 154, N-((4′-fluoro-3-(1-(oxetan-3-yl)-1H-pyrazol-3-yl)-[1,1′-biphenyl]-4-yl)methyl)acrylamide], the EC50 is less than 1000 nM. The same measure for `C=CC(=O)NCc1ccc(-c2ccc(F)cc2)cc1-c1ccn(CCOC(F)(F)F)n1` [compound 155, N-((4′-fluoro-3-(1-(2-(trifluoromethoxy)ethyl)-1H-pyrazol-3-yl)-[1,1′-biphenyl]-4-yl)methyl)acrylamide]: 1000 to 20000 nM; for `C=CC(=O)NCc1ccc(-c2ccc(C(F)(F)F)cc2)cc1-c1ccn(CCOC)n1` [compound 156, N-((3-(1-(2-methoxyethyl)-1H-pyrazol-3-yl)-4′-(trifluoromethyl)-[1,1′-biphenyl]-4-yl)methyl)acrylamide]: less than 1000 nM. The same measure for `C=CC(=O)NCc1ccc(-c2ccc(Cl)cc2)cc1-c1ccn(C2CC2)n1` [compound 158, N-((4′-chloro-3-(1-cyclopropyl-1H-pyrazol-3-yl)-[1,1′-biphenyl]-4-yl)methyl)acrylamide]: less than 1000 nM; for `C=CC(=O)NCc1ccc(-c2ccc(F)cc2)cc1-c1ccn(CC2COC2)n1` [compound 159, N-((4′-fluoro-3-(1-(oxetan-3-ylmethyl)-1H-pyrazol-3-yl)-[1,1′-biphenyl]-4-yl)methyl)acrylamide]: less than 1000 nM. The result for `C=CC(=O)NCc1ccc(-c2ccc(F)cc2)cc1-c1ccn(CC(F)(F)F)n1` [compound 160, N-((4′-fluoro-3-(1-(2,2,2-trifluoroethyl)-1H-pyrazol-3-yl)-[1,1′-biphenyl]-4-yl)methyl)acrylamide] reads less than 1000 nM. The molecule `C=CC(=O)NCc1ccc(-c2ccc(F)cc2)cc1-c1ccnn1C` [compound 163, N-((4′-fluoro-3-(1-methyl-1H-pyrazol-5-yl)-[1,1′-biphenyl]-4-yl)methyl)acrylamide] had an EC50 of more than 20000 nM. `C=CC(=O)NCc1ccc(-c2ccc(F)cc2)cc1-c1cccnc1` [compound 164, N-((4′-fluoro-3-(pyridin-3-yl)-[1,1′-biphenyl]-4-yl)methyl)acrylamide]: the EC50 is less than 1000 nM. The same measure for `C=CC(=O)NCc1ccc(-c2ccc(C(F)(F)F)cc2)cc1-c1cnn(C2CC2)c1` [compound 168, N-((3-(1-cyclopropyl-1H-pyrazol-4-yl)-4′-(trifluoromethyl)-[1,1′-biphenyl]-4-yl)methyl)acrylamide]: less than 1000 nM; for `C=CC(=O)NCc1ccc(-c2ccc(F)cc2)cc1-c1ccnn1C(F)F` [compound 171, N-((3-(1-(difluoromethyl)-1H-pyrazol-5-yl)-4′-fluoro-[1,1′-biphenyl]-4-yl)methyl)acrylamide]: 1000 to 20000 nM; for `C=CC(=O)NCc1ccc(-c2ccc(C(F)(F)F)cc2)cc1-c1cnn(C(F)F)c1` [compound 173, N-((3-(1-(difluoromethyl)-1H-pyrazol-4-yl)-4′-(trifluoromethyl)-[1,1′-biphenyl]-4-yl)methyl)acrylamide]: less than 1000 nM. The result for `C=CC(=O)NCc1ccc(-c2ccc(F)cc2)cc1-c1ccn(C2(C)CC2)n1` [compound 175, N-((4′-fluoro-3-(1-(1-methylcyclopropyl)-1H-pyrazol-3-yl)-[1,1′-biphenyl]-4-yl)methyl)acrylamide] reads less than 1000 nM. The result for `C=CC(=O)NCc1ccc([C@H]2CC[C@H](C(F)(F)F)CC2)cc1-c1ccn(C)n1` [compound 178, trans-N-(2-(1-methyl-1H-pyrazol-3-yl)-4-(4-(trifluoromethyl)cyclohexyl)benzyl)acrylamide] reads less than 1000 nM.

Regarding `C=CC(=O)NCc1ccc(N2CCC(C(F)(F)F)CC2)cc1-c1ccn(C)n1` [compound 181, N-(2-(1-methyl-1H-pyrazol-3-yl)-4-(4-(trifluoromethyl)piperidin-1-yl)benzyl)acrylamide], the EC50 is less than 1000 nM.

In turn, `C=CC(=O)NCc1ccc(-c2ccc(F)cc2)cc1C1CCN(C)C1` (stereo not shown) [compound 183, N-((4′-fluoro-3-(1-methylpyrrolidin-3-yl)-[1,1′-biphenyl]-4-yl)methyl)acrylamide] registered an EC50 of 1000 to 20000 nM. The same measure for `C=CC(=O)NCc1ccc(-c2ccc(F)cc2)cc1-c1cnn(C(F)F)n1` [compound 186, N-((3-(2-(difluoromethyl)-2H-1,2,3-triazol-4-yl)-4′-fluoro-[1,1′-biphenyl]-4-yl)methyl)acrylamide]: less than 1000 nM. The same measure for `C=CC(=O)NCc1ccc(-c2ccc(F)cc2)cc1-c1nnnn1C` [compound 189, N-((4′-fluoro-3-(1-methyl-1H-tetrazol-5-yl)-[1,1′-biphenyl]-4-yl)methyl)acrylamide]: 1000 to 20000 nM; for `C=CC(=O)NCc1ccc(-c2ccc(F)cc2)cc1-n1ccnn1` [compound 191, N-((4′-fluoro-3-(1H-1,2,3-triazol-1-yl)-[1,1′-biphenyl]-4-yl)methyl)acrylamide]: less than 1000 nM; for `C=CC(=O)NCc1c(F)cc(-c2ccc(C(F)(F)F)cc2)cc1-c1ccn(C)n1` [compound 192, N-((3-fluoro-5-(1-methyl-1H-pyrazol-3-yl)-4′-(trifluoromethyl)-[1,1′-biphenyl]-4-yl)methyl)acrylamide]: less than 1000 nM. The same measure for `C=CC(=O)NCc1ccc(-c2ccc(F)cc2)nc1-c1ccn(CC2CC2)n1` [compound 195, N-((2-(1-(cyclopropylmethyl)-1H-pyrazol-3-yl)-6-(4-fluorophenyl)pyridin-3-yl)methyl)acrylamide]: less than 1000 nM.

`C=CC(=O)NCc1ccc(-c2ccc(F)cc2)nc1-c1ccn(C2CC2)n1` [compound 196, N-((2-(1-cyclopropyl-1H-pyrazol-3-yl)-6-(4-fluorophenyl)pyridin-3-yl)methyl)acrylamide] came in with an EC50 of less than 1000 nM.

`C=CC(=O)NCc1ccc(-c2ccc(F)cc2)nc1-c1ccnn1C1CC1` [compound 197, N-((2-(1-cyclopropyl-1H-pyrazol-5-yl)-6-(4-fluorophenyl)pyridin-3-yl)methyl)acrylamide]: the EC50 was 1000 to 20000 nM. The result for `C=CC(=O)NCc1ccc(-c2ccc(F)cc2)nc1-c1nnn(C(F)F)n1` [compound 199, N-((2-(2-(difluoromethyl)-2H-tetrazol-5-yl)-6-(4-fluorophenyl)pyridin-3-yl)methyl)acrylamide] reads less than 1000 nM.

With `C=CC(=O)NCc1ccc(-c2ccc(F)cc2)nc1-c1nn[nH]n1` [compound 200, N-((6-(4-fluorophenyl)-2-(2H-tetrazol-5-yl)pyridin-3-yl)methyl)acrylamide], the EC50 was more than 20000 nM.

`C=CC(=O)NCc1ncc(-c2ccc(F)cc2)cc1-c1nnn(C(F)F)n1` [compound 204, N-((3-(2-(difluoromethyl)-2H-tetrazol-5-yl)-5-(4-fluorophenyl)pyridin-2-yl)methyl)acrylamide]: the EC50 was less than 1000 nM.

On to `CN(C)C/C=C/C(=O)NCc1cnc(-c2ccc(F)cc2)cc1-c1ccn(C(F)F)n1` [compound 208, (E)-N-((4-(1-(difluoromethyl)-1H-pyrazol-3-yl)-6-(4-fluorophenyl)pyridin-3-yl)methyl)-4-(dimethylamino)but-2-enamide], for which the EC50 is more than 20000 nM.
